# Publication PMC10328743, “5-Nitro-3-(2-(4-phenylthiazol-2-yl)hydrazineylidene)indolin-2-one derivatives inhibit HIV-1 replication by a multitarget mechanism of action” (Frontiers in Cellular and Infection Microbiology, 2023)
# Read-outs that look alike come from different tables or passages of the source.
# What was measured:
# [1] = molecular target: T1, HIV-1 RT-associated RNase H (Human immunodeficiency virus type 1 group M subtype B, UniProt P04585); experiment: HIV-1 DNA polymerase-independent RNase H activity determination; format: biochemical
# T1 construct: The 1:1 ratio between the p66/p51 subunits was also verified; His tag (implied only by Ni-NTA IMAC purification); made in house; host or cells: Escherichia coli M15
# Procedure: (§1) Escherichia coli strain M15 containing the p6HRT-prot vector (provided by Stuart Le Grice laboratory (NCI Frederick)) was grown to an optical density at 600 nm of 0.7 and induced with 1.7 mM of isopropyl β-D-1-thiogalactopyranoside (IPTG) for 4 h. Protein purification was carried out with a BioLogic LP system (Bio-Rad, Hercules, CA, USA) using a combination of immobilized metal affinity chromatography (IMAC) and ion exchange chromatography. Cell pellets were resuspended in lysis buffer (50 mM of sodium phosphate buffer, pH 7.8, containing 0.5 mg/mL of lysozyme), incubated on ice for 20 min, and, after the addition of NaCl to a final concentration of 0.3 M, were sonicated and centrifuged at 30,000 ×g for 1 h. The supernatant was loaded onto a Ni^2+-NTA-Sepharose column pre-equilibrated with loading buffer (50 mM of sodium phosphate buffer, pH 7.8, containing 0.3 M of NaCl, 10% glycerol, and 10 mM of imidazole) and washed thoroughly with wash buffer (50 mM of sodium phosphate buffer, pH 6.0, containing 0.3 M of NaCl, 10% glycerol, and 80 mM of imidazole). RT was eluted with an imidazole gradient in the wash buffer (0–0.5 M). Fractions were collected, and protein purity was checked by sodium dodecyl sulfate–polyacrylamide gel electrophoresis (SDS-PAGE) and found to be higher than 90%. The 1:1 ratio between the p66/p51 subunits was also verified. Enzyme-containing fractions were pooled and diluted 1:1 with 50 mM of sodium phosphate buffer, pH 7.0, containing 10% glycerol, and then loaded into a Hi-trap heparin HP GE (Healthcare LifeScience) pre-equilibrated with 10 column volumes of loading buffer (50 mM of sodium phosphate buffer, pH 7.0, containing 10% glycerol, and 150 mM of NaCl). The column was then washed with loading buffer, and the RT was eluted with Elute Buffer 2 (50 mM of sodium phosphate, pH 7.0, 10% glycerol, 1 M of NaCl). Fractions were collected, and the protein was dialyzed and stored in a buffer containing 50 mM of Tris-HCl, pH 7.0, 25 mM of NaCl, 1 mM of EDTA, and 50% glycerol. Catalytic activities and protein concentrations were determined. Enzyme-containing fractions were pooled, and aliquots were stored at −80°C.
# HIV RT-associated RNase H activity was measured as described ([Corona et al., 2016b]) in a 100-µl reaction volume containing 50 mM of Tris-HCl buffer, pH 7.8, 6 mM of MgCl2, 1 mM of dithiothreitol (DTT), 80 mM of KCl, 0.25 µM of hybrid RNA/DNA 5′-[…]-Fluorescin-3′ (high-performance liquid chromatography (HPLC), dry, QC: Mass Check) (available from Metabion) 5′-Dabcyl-[…]-3′ (HPLC, dry, QC: Mass Check), increasing concentrations of inhibitors, whose dilution were made in water, and different amounts of enzymes according to a linear range of the dose–response curve. The reaction mixture was incubated for 1 h at 37°C and stopped by the addition of EDTA, and products were measured with a multilabel counter plate reader Victor 3 equipped with filters for 490/528 nm.
# [2] = molecular target: T2, HIV-1 RT-associated RDDP (Human immunodeficiency virus type 1 group M subtype B, UniProt P04585); experiment: HIV-1 RNA-dependent DNA polymerase activity determination; format: biochemical
# T2 construct: The 1:1 ratio between the p66/p51 subunits was also verified; His tag (implied only by Ni-NTA IMAC purification); made in house; host or cells: Escherichia coli M15
# Procedure: as §1
# RDDP activity was measured as previously reported in 25-µl volume containing 60 mM of Tris‐HCl buffer, pH 8.1, 8 mM of MgCl2, 60 mM of KCl, 13 mM of DTT, 2.5 µM of poly(A)-oligo(dT), 100 µM of dTTP, increasing concentrations of inhibitors, whose dilution were made in water, and different amounts of enzymes according to a linear range of the dose–response curve. The reaction mixture was incubated for 30 min at 37°C and then stopped by the addition of EDTA. Reaction products were detected by pico green addition and measured with a multilabel counter plate reader Victor 3, equipped with filters for 502/523 nm.
# [3] = tested on: HIV-1; experiment: HIV-1 replication inhibition in MT4 cells; format: cell-based
# Procedure: (§2) HIV-1 replication was carried out in MT4 cells as previously reported ([Corona et al., 2016a]) using a molecular clone derived from the pNL4-3 ([Thierry et al., 2015]). A total of 120 ng of p24^gag antigen per 10^6 cells, corresponding to a multiplicity of infection (m.o.i.) of 0.3, was used for infection. […] Flow cytometry analysis was performed on a FACSCalibur flow cytometer (BD Biosciences, San Jose, CA, USA), and the results were analyzed using the […] software.
# [4] = Viability of infected MT4 cells (cytotoxicity); format: cell-based; details: human, infected MT4 cells viability, three independent experiments, average ± standard deviation
# Procedure: as §2
# [5] = wt HIV-1 RT, three independent experiments, average ± standard deviation, read-out: RNase H IC50
# [6] = wt HIV-1 RT, three independent experiments, average ± standard deviation, read-out: RDDP IC50
# [7] = Human immunodeficiency virus 1, MT4, viral replication in MT4 cells, three independent experiments, average ± standard deviation, read-out: HIV-1 EC50
# [8] = wt HIV-1 RT, three independent experiments, average ± standard deviation
Compound,"IC50 [1, 5] [µM]","IC50 [2, 6] [µM]","EC50 [3, 7] [µM]",CC50 ([4]; MT4 cells infected with HIV-1) [µM],"RNase H IC50 [1, 8]",IC50 [1] [µM],IC50 [2] [µM],"EC50 ([3]; Human immunodeficiency virus 1, MT4, read-out: HIV-1 EC50) [µM]",CC50 [4] [µM]
O=C1Nc2ccc(Cl)cc2/C1=N/Nc1nc(-c2ccc(F)cc2F)cs1 [7b],6 ± 1.5,10 ± 1,,,,,,,
Cn1c(-c2ccc(-c3ccccc3)cc2)cs/c1=N\N=C1/C(=O)Nc2ccc([N+](=O)[O-])cc21 [5c],6.1 ± 1.1,11.4 ± 2.2,> 7,7 ± 1.4,,,,,
Cn1c(-c2cccc([N+](=O)[O-])c2)cs/c1=N\N=C1/C(=O)Nc2ccc([N+](=O)[O-])cc21 [8c],100 ± 20,8.7 ± 1.5,,,active only toward the RDDP function,,,,
N#Cc1ccc(-c2csc(N/N=C3\C(=O)Nc4ccc([N+](=O)[O-])cc43)n2)cc1 [6a],6 ± 0.1,9.3 ± 0.3,> 100,> 100,,,,,
O=C1Nc2ccc(Cl)cc2/C1=N/Nc1nc(-c2ccc([N+](=O)[O-])cc2)cs1 [4b],15.3 ± 1.5,14.9 ± 2.7,> 50,50 ± 12,,,,,
Cn1c(-c2ccc([N+](=O)[O-])cc2)cs/c1=N\N=C1/C(=O)Nc2ccc([N+](=O)[O-])cc21 [4c],,,,,,1.9 ± 0.2,6 ± 0.5,> 5.5,5.5 ± 0.9
Cn1c(-c2ccc(Br)cc2)cs/c1=N\N=C1/C(=O)Nc2ccc([N+](=O)[O-])cc21 [3c],7.7 ± 1.2,19.5 ± 3.3,> 25,25 ± 3.1,,,,,
O=C1Nc2ccc(Cl)cc2/C1=N/Nc1nc(-c2ccc(Br)cc2)cs1 [3b],4.4 ± 0.1,8.3 ± 0.6,> 95,95 ± 14,,,,,
O=C1Nc2ccc([N+](=O)[O-])cc2/C1=N/Nc1nc(-c2ccc(Cl)c(Cl)c2)cs1 [9a],6.5 ± 0.5,11.5 ± 0.5,> 100,> 100,,,,,
O=C1Nc2ccc([N+](=O)[O-])cc2/C1=N/Nc1nc(-c2ccc(-c3ccccc3)cc2)cs1 [5a],7.1 ± 0.1,12 ± 3,> 100,> 100,,,,,
Cn1c(-c2ccc(Cl)c(Cl)c2)cs/c1=N\N=C1/C(=O)Nc2ccc([N+](=O)[O-])cc21 [9c],1.9 ± 0.7,15.1 ± 0.5,> 5,5 ± 1.3,,,,,
O=C1Nc2ccc([N+](=O)[O-])cc2/C1=N/Nc1nc(-c2ccccc2)cs1 [12a],6 ± 1,,> 100,> 100,,,13 ± 2,,
Cn1c(-c2ccc(C#N)cc2)cs/c1=N\N=C1/C(=O)Nc2ccc([N+](=O)[O-])cc21 [6c],100 ± 5,12.1 ± 1.6,,,active only toward the RDDP function,,,,
O=C1Nc2ccc(Cl)cc2/C1=N/Nc1nc(-c2ccc(F)cc2)cs1 [2b],4.5 ± 0.2,7.5 ± 1.5,> 56,56 ± 6,,,,,
O=C1Nc2ccc([N+](=O)[O-])cc2/C1=N/Nc1nc(-c2ccc(F)cc2)cs1 [2a],5.1 ± 2,9.5 ± 0.5,> 100,> 100,,,,,
COc1ccc(-c2cs/c(=N\N=C3/C(=O)Nc4ccc([N+](=O)[O-])cc43)n2C)cc1 [11c],4 ± 1.4,11.2 ± 2.2,> 2,2 ± 0.4,,,,,
O=C1Nc2ccc(Cl)cc2/C1=N/Nc1nc(-c2ccc(-c3ccccc3)cc2)cs1 [5b],13.2 ± 1.6,38 ± 5,,,,,,,
O=C1Nc2ccc(Cl)cc2C1=NNc1nc(-c2ccc(Cl)cc2)cs1 [1b],12 ± 2.3,30 ± 7.5,> 100,> 100,,,,,
COc1ccc(-c2csc(N/N=C3\C(=O)Nc4ccc([N+](=O)[O-])cc43)n2)cc1 [11a],8.5 ± 0.6,14.5 ± 0.5,> 100,> 100,,,,,
Cc1ccc(-c2cs/c(=N\N=C3/C(=O)Nc4ccc([N+](=O)[O-])cc43)n2C)cc1 [10c],6.8 ± 1.4,16.9 ± 2.3,> 10,10 ± 2.7,,,,,
O=C1Nc2ccc([N+](=O)[O-])cc2/C1=N/Nc1nc(-c2ccc(F)cc2F)cs1 [7a],6 ± 0.1,11.5 ± 0.5,,,,,,,
Cn1c(-c2ccccc2)cs/c1=N\N=C1/C(=O)Nc2ccc([N+](=O)[O-])cc21 [12c],3.6 ± 0.8,8.1 ± 0.1,> 10,10 ± 1.2,,,,,
O=C1Nc2ccc(Cl)cc2/C1=N/Nc1nc(-c2ccccc2)cs1 [12b],5.4 ± 0.6,9.4 ± 1.1,> 70,70 ± 5,,,,,
Cc1ccc(-c2csc(NN=C3C(=O)Nc4ccc(Cl)cc43)n2)cc1 [10b],10 ± 1.4,18 ± 0.7,> 100,> 100,,,,,
Cn1c(-c2ccc(Cl)cc2)cs/c1=N\N=C1/C(=O)Nc2ccc([N+](=O)[O-])cc21 [1c],8.2 ± 1,24 ± 3,> 42,42 ± 8,,,,,
Cn1c(-c2ccc(F)cc2)cs/c1=N\N=C1/C(=O)Nc2ccc([N+](=O)[O-])cc21 [2c],5.6 ± 0.6,21 ± 1,> 7,7 ± 1.6,,,,,
O=C1Nc2ccc(Cl)cc2/C1=N/Nc1nc(-c2cccc([N+](=O)[O-])c2)cs1 [8b],22 ± 1,72 ± 13,,,,,,,
O=C1Nc2ccc([N+](=O)[O-])cc2/C1=N/Nc1nc(-c2cccc([N+](=O)[O-])c2)cs1 [8a],6.5 ± 0.5,18.5 ± 0.5,,,,,,,
